Several values for one entry are separate records, joined by “and”; a condition that tells them apart may be missing. Equal entries are not always repeated. Ends that are not written are not given here.
What was measured:
[1] = test system: ribosomal A-site model RNA hairpin HRP6; assay: ITC binding to bacterial ribosomal A-site model RNA hairpin HRP6 (Example 3); parameters: species or system Mycobacterium tuberculosis; conditions: sodium acetate buffer (pH 5.5)
[2] = test system: ribosomal A-site model RNA hairpin HRP5; assay: ITC binding to human ribosomal A-site model RNA hairpin HRP5 (Example 3); conditions: sodium acetate buffer (pH 5.5)
RNA hairpin HRP2 (A-U) [3] = assay: ITC binding of PNA and GPNA to RNA hairpin HRP2 (Example 3); conditions: for -ΔG / -ΔH / -ΔS: acetate pH 5.5
Experimental: (§1) Isothermal Titration calorimetry. In a typical ITC experiment, an RNA hairpin solution (0.95 mL, […]) in acetate buffer [100 mM sodium acetate and 1.0 mM EDTA (pH 5.5)] was titrated with a PNA solution (50×5 μL, […]) using a Nano ITC G2 (TA Instruments) calorimeter. For full experimental details and data, see the Supporting Information. The titration data were analyzed using NanoAnalyze (TA Instruments) using an independent model to obtain the fitting graph and thermodynamic binding data (Table 7).
To gain more insight into different binding modes, guanidine-modified variants of hexamer CTCTTC (PNA4) were prepared and studied their binding to HRP2. […] While there was very little dependence on the number of modifications in the D series (entries 7-9), in the L series (entries 10-12) the affinity appeared to decrease somewhat with an increasing number of guanidine modifications.

[4] = cited from earlier work
RNA hairpin HRP2 (A-U) [5] = assay: ITC binding of PNA and GPNA to RNA hairpin HRP2 (Example 3); conditions: experiment of entry 13 repeated in acetate buffer at pH 7.3
RNA hairpin HRP1 (G-C) [6] = assay: ITC binding of PNA and GPNA to RNA hairpin HRP1 (Example 3); conditions: for Ka: 100 mM sodium acetate and 1.0 mM EDTA (pH 5.5); for -ΔG / -ΔH / -ΔS: acetate pH 5.5
Experimental: as §1
The guanidine-modified PNA oligomers [GPNA (FIG. 10)] were made using the standard Fmoc synthesis protocols on the Expedite 8909 synthesizer and purified by reverse-phase high-performance liquid chromatography. […] To allow direct comparison, the same GPNA sequences were prepared (FIG. 10), like the PNA used in previous study of triple-helix formation with double-helical RNA. The binding of GPNA to RNA hairpin (HRP1) was studied using isothermal titration calorimetry [ITC (FIG. 11)]. […] Formation of the complex was further confirmed using circular dichroism (CD) spectroscopy. […] Addition of 4.5 equiv (conditions mimicking the end point of ITC titration) of D-GPNA1 and L-GPNA1 to HRP1 induced a decrease in the magnitude of the CD signal at 240-250 nm, which was clearly visible in the difference spectra. However, a significant increase around 280 nm was not observed. […] Overall, the CD spectra confirmed the formation of GPNA-RNA complexes.

DNA version of HRP1 = assay: ITC binding of GPNA to a DNA version of HRP1 (Example 3); conditions: acetate pH 5.5
Experimental: as §1
Binding of D-GPNA1 to the HRP1 hairpin, consistent with, made of deoxynucleotides (DNA version of HRP1) was weaker by ˜1 order of magnitude (cf., entries 2 and 4). In contrast, the affinity of L-GPNA1 for either the RNA or DNA hairpin was practically the same (cf., entries 3 and 5). Under physiologically relevant conditions [37° C., in 2 mM MgCl2, 90 mM KCl, 10 mM NaCl, and 50 mM potassium phosphate (pH 7.4)], no binding of D-GPNA1 to HRP1 was observed. The sequence of PNA3 was symmetric and thus provided optimal binding for formation of both a parallel triple helix and an antiparallel duplex, as required for triplex invasion (FIGS. 12A-12C).

RNA hairpin HRP3 (C-G) = assay: ITC binding of PNA and GPNA to RNA hairpin HRP3 (Example 3); conditions: sodium acetate buffer (pH 5.5)
Experimental: as §1
(§2) Next the sequence selectivity of binding of GPNA1 to all four RNA hairpins having a variable central base pair [HRP1-HRP4 (FIGS. 6 and 10)] was checked.

RNA hairpin HRP4 (U-A) = assay: ITC binding of PNA and GPNA to RNA hairpin HRP4 (Example 3); conditions: sodium acetate buffer (pH 5.5)
Experimental: as §1, §2

RNA hairpin HRP1 (G-C) [7] = assay: ITC binding of PNA and GPNA to RNA hairpin HRP1 (Example 3); conditions: 37° C., 2 mM MgCl2, 90 mM KCl, 10 mM NaCl, 50 mM potassium phosphate (pH 7.4)
[8] = 100 mM sodium acetate and 1.0 mM EDTA (pH 5.5)

Molecule	Average association constants Ka, M. tuberculosis (HRP6) [1] [M⁻¹]	Average association constants Ka, H. Sapiens (HRP5) [2]	Ka (RNA hairpin HRP2 (A-U) [3]; [8])	-ΔG (RNA hairpin HRP2 (A-U) [3]) [kcal/mol]	-ΔH (RNA hairpin HRP2 (A-U) [3]) [kcal/mol]	-ΔS (RNA hairpin HRP2 (A-U) [3]) [eu]	also measured
NH2-CCTGCTT [PNA11]	200000	40000 M⁻¹					
NH2-CTL-ArgGCTT [GPNA12]	400000	800000 M⁻¹					
NH2-CTD-ArgTD-ArgCTD-ArgC [D-GPNA7]			0.4 ± 0.01 ×10^6 M^−1	7.6 ± 0.0	25.8 ± 3.7	61 ± 13	
NH2-CCCTL-ArgGCTL-ArgT [GPNA10]	500000	2.8e+06 M⁻¹					
Nc1cc[nH]c(=O)n1 [cytosine]							pKa [4]: ~4.5
NH2-CTD-ArgTCTD-ArgC [D-GPNA6]			5e+06 M⁻¹	9.1	13.4	14	
NH2-CTD-ArgCTD-ArgTD-ArgC [D-GPNA4]			600000 M⁻¹	7.9	22.9	50	
NH2-CTL-ArgCTL-ArgTL-ArgC [L-GPNA4]			500000 M⁻¹	7.8	61.6	181	
NH2CTL-ArgGCTL-ArgT [GPNA13]	2.9e+06	8.1e+06 M⁻¹					
H-CCCTPCTT (cysteine pairing not given here) [PNA13]	1.5e+06	NB[b] (No binding; Ka < 10^3 M^−1.)					
NH2-CTCTL-ArgTC [L-GPNA2]			1.8e+06 M⁻¹	8.5	39.6	104	
NH2-CTD-ArgCTTD-ArgC [D-GPNA3]			500000 M⁻¹	7.8	41.8	114	
NH2-CTTD-ArgCTC [D-GPNA5]			1.05e+07 M⁻¹	9.6	19.8	34	Ka (RNA hairpin HRP2 (A-U) [3]; pH 5.5, antiparallel GPNA): ~10^7; binding to HRP2 in acetate buffer at pH 7.3 (RNA hairpin HRP2 (A-U) [5]): no binding
NH2-CTL-ArgCTTL-ArgC [L-GPNA3]			800000 M⁻¹	8.0	58.8	170	
NH2-CTGCTT [PNA12]	200000	60000 M⁻¹					
NH2-CTCTD-ArgTC [D-GPNA2]			500000 M⁻¹	7.8	70.0	209	
NH2-CTL-ArgTL-ArgCTL-ArgC [L-GPNA7]			3.8 ± 0.1 ×10^6 M^−1	8.9 ± 0.3	13.0 ± 7.3	14 ± 25	
NH2-CCCTPexCTT [PNA14]	2e+06	NB[b] (No binding; Ka < 10^3 M^−1.)					
NH2-CCCTGCTT [PNA10]	1.2e+06	400000 M⁻¹					
NH2-CTL-ArgCCTL-ArgC [L-GPNA1]			800000 M⁻¹				Ka (RNA hairpin HRP1 (G-C) [6]): 2.2 ± 1.6 ×10^6 M^−1 and 2.2 ×10^6 M^−1; -ΔG (RNA hairpin HRP1 (G-C) [6]): 8.6 ± 0.5 kcal/mol; -ΔH (RNA hairpin HRP1 (G-C) [6]): 24.2 ± 9.6 kcal/mol; -ΔS (RNA hairpin HRP1 (G-C) [6]): 53 ± 34 eu; -ΔG (DNA version of HRP1): 8.7 kcal/mol; -ΔH (DNA version of HRP1): 21.0 kcal/mol; -ΔS (DNA version of HRP1): 41 eu; Ka (DNA version of HRP1): 2.5e+06 M⁻¹; Average association constants Ka, HRP3 (C-G) (RNA hairpin HRP3 (C-G)): 600000 M⁻¹; Average association constants Ka, HRP4 (U-A) (RNA hairpin HRP4 (U-A)): 400000 M⁻¹
NH2-CTD-ArgCCTD-ArgC [D-GPNA1]			300000 M⁻¹				Ka (RNA hairpin HRP1 (G-C) [6]): 4.6 ± 1.6 ×10^6 M^−1 and 4.6 ×10^6 M^−1; -ΔG (RNA hairpin HRP1 (G-C) [6]): 9.1 ± 0.2 kcal/mol; -ΔH (RNA hairpin HRP1 (G-C) [6]): 27.3 ± 2.5 kcal/mol; -ΔS (RNA hairpin HRP1 (G-C) [6]): 61 ± 9 eu; -ΔG (DNA version of HRP1): 7.7 kcal/mol; -ΔH (DNA version of HRP1): 29.1 kcal/mol; -ΔS (DNA version of HRP1): 72 eu; Ka (DNA version of HRP1): 400000 M⁻¹; Average association constants Ka, HRP3 (C-G) (RNA hairpin HRP3 (C-G)): 700000 M⁻¹; Average association constants Ka, HRP4 (U-A) (RNA hairpin HRP4 (U-A)): 1.3e+06 M⁻¹; binding to HRP1 under physiologically relevant conditions (RNA hairpin HRP1 (G-C) [7]): no binding

From patent publication US10260089B2, “Compositions and methods for recognition of RNA using triple helical peptide nucleic acids” (The Research Foundation for the State University of New York, priority 2012, dated 2019)
